Measured values: patent publication US20060194293A1, “Rb1 gene induced protein (rb1cc1) and gene” (Tokuhiro CHANO, priority 2003, published 2006)
Entries after “also recorded” stand apart in the source; their conditions may differ.

Legend:
Assay type in all cases: cell-based, human
[1] = tested on: RB1CC1 gene; experiment: Northern blot of RB1CC1 gene expression after doxorubicin, U-2 OS/DX580 cells; settings: U-2 OS/DX580 MDR variants, doxorubicin treatment
Procedure: (§1) Expression levels of RB1CC1 gene and MDR1 gene in parental U2 OS cells and several kinds of MDR-variant cells were analyzed by Northern blotting. A probe hybridizing between nucleotide numbers 4190 and 4654 of the RB1CC1 gene sequence was used as a probe for analysis of RB1CC1 gene, and a probe hybridizing between nucleotide numbers 834 and 1119 of MDR1 gene was used for MDR1 gene. Probes were used after labeling with α-32P-dCTP in which phosphorus at an alpha position of […] was substituted with a radioactive isotope. Glyceraldehyde-3-phosphate dehydrogenase (GAPDH) was used as the indicator of mRNA expression.
(§2) mRNA expression levels of cells that were obtained over time in the above-mentioned experiment were analyzed. Analysis was conducted for the novel gene RB1CC1 gene of the present invention, the RB1 gene and the MDR1 gene, respectively, in the same manner as Example 3 with the exception that expression levels of the RB1 gene were detected using a probe hybridizing to the site at nucleotides 336 to 675 of the nucleotide sequence of human RB1 mRNA. […] In contrast, in MDR variants of U-2 OS cells (U-2 OS/DX580) and U-2 OS cells introduced with MDR1 gene (U-2/DOXO 35), expression level of RB1CC1 gene was not inhibited by treatment with doxorubicin, and expression of RB1CC1 gene increased. […]

[2] = tested on: U-2/Neo8 cells; experiment: Cell proliferation under doxorubicin treatment, control gene-introduced cells; settings: U-2/Neo8 control cells
Procedure: (§3) The effect on cell proliferation in the presence of 450 ng/mL of the anticancer agent doxorubicin was examined.

[3] = tested on: RB1CC1 gene; experiment: Northern blot of RB1CC1 gene expression after doxorubicin, U-2/DOXO 35 cells; settings: U-2/DOXO 35 (MDR1 gene introduced), doxorubicin treatment
Procedure: as §1, §2

[4] = tested on: U-2 OS/DX580 cells; experiment: Cell proliferation under doxorubicin treatment, MDR variant cells; settings: U-2 OS/DX580 MDR variants, 450 ng/mL doxorubicin
Procedure: as §3

[5] = tested on: U-2 OS cells; experiment: Cell proliferation under doxorubicin treatment, parental cells; settings: parental U-2 OS cells
Procedure: as §3

[6] = tested on: U-2/DOXO 35 cells; experiment: Cell proliferation under doxorubicin treatment, MDR1 gene-introduced cells; settings: U-2/DOXO 35 (MDR1 gene introduced), 450 ng/mL doxorubicin
Procedure: as §3

[7] = tested on: RB1CC1 gene; experiment: Northern blot of RB1CC1 gene expression after doxorubicin, parental U-2 OS cells; settings: doxorubicin treatment, over time
Procedure: as §1, §2

[8] = tested on: RB1CC1 gene; experiment: Northern blot of RB1CC1 gene expression after doxorubicin, U-2/Neo8 cells; settings: U-2/Neo8 control cells, doxorubicin treatment, over time
Procedure: as §1, §2

In the case of COc1cccc2c1C(=O)c1c(O)c3c(c(O)c1C2=O)C[C@@](O)(C(=O)CO)C[C@@H]3O[C@H]1C[C@H](N)[C@H](O)[C@H](C)O1 [doxorubicin], the “expression of the RB1CC1 gene (mRNA)” value [1] was “did not exhibit an inhibitory effect; also recorded: not inhibited”, the “effect on cell proliferation” value ([2]; 450 ng/mL doxorubicin) was “suppressed” and the cell death ([2]; doxorubicin treatment) was “induced cell death”. For the same compound, the “expression of the RB1CC1 gene (mRNA)” value [3] was “increased; also recorded: not inhibited”, the “effect on cell proliferation” value [4] was “did not exhibit an inhibitory effect; also recorded: had no effect” and the “effect on cell proliferation” value ([5]; 450 ng/mL doxorubicin) was “suppressed”. The cell death ([5]; doxorubicin treatment) was “induced cell death”, the “effect on cell proliferation” value [6] was “had no effect” and the “expression of the RB1CC1 gene (mRNA)” value [7] was “lowered expression; also recorded: decreased over time”. For the same compound, the “expression of the RB1CC1 gene (mRNA)” value [8] was “lowered expression; also recorded: decreased over time”.
